For assay [1], the system named is more than 70 cancer cell lines. In words: Growth inhibition across cancer cell lines (GI50). It counts as cell-based. The conditions noted are these: read-out: median concentration to achieve 50% growth inhibition (GI50); across more than 70 cancer cell lines.
For assay [2], the system named is SK-N-AS cells homozygous of the Y418A mutant RPB1 alleles. In words: Growth of RPB1 Y418A (APIM) mutant cell lines. Particulars: 72 hrs; vs parent SK-N-AS. The format is cell-based, human.
Assay [3] has as its system SK-N-AS derived xenograft tumors. In words: Survival of mice bearing xenograft tumors, AOH1996 with CPT-11. The format is in vivo, ES1^e/SCID mice. Particulars: AOH1996 80 mg/kg oral 8 d; CPT-11 15 mg/kg i.p. 3 d; vs untreated. How it is done:
FIGS. 4A-4H. Pharmacokinetics and anti-tumor growth activity of AOH1996 in vivo. FIG. 4A: After oral administration, the plasma concentrations of AOH1996 from three male and three female ES1^e/SCID mice at the indicated time points were averaged and graphed ±S.D. The inset contains PK parameters determined by a standard noncompartmental method. FIG. 4B: A similar PK study of AOH1996 was performed in dogs. FIGS. 4C-4E: Mice bearing the xenograft tumors of neuroblastoma (FIG. 4C: SK-N-BE(2)c), breast cancer (FIG. 4D: MDA-MB-468), and small-cell lung cancer (FIG. 4E: H82) were given vehicle only (black) or 40 mg/kg of AOH1996 (grey) twice daily immediately after the first measurement. Tumor sizes were measured by a dial caliper each week. Tumor volumes (0.4×L×W^2) were averaged and graphed ±S.E. (*, P<0.01). FIG. 4F: Animal body weight was monitored throughout the studies as an indicator of toxicity. […] FIG. 4G: The levels of phosphor-Chk1 (pChk1) and γH2A.X in SK-N-BE(2)c derived tumor samples were analyzed by IHC. […] The p values determined by the Log-rank (Mantel-Cox) test between combination treatment and each of the control groups are p=0.0003 (Combination vs. NoRx), p=0.005 (Combination vs. AOH1996 alone), and p=0.024 (Combination vs. CPT-11 alone). […]
In vivo tumor model. […] Tumor size and animal weight were measured weekly. […]

The next assay deals with γH2A.X. In words: γH2A.X Western blot (DNA damage marker). The format is cell-based, human. For orientation: Immunoblotting shows a protein as a band on a membrane.

For the compound `COc1cccc(Oc2ccccc2NC(=O)CNC(=O)c2cccc3ccccc23)c1` [AOH1996, N-(2-((2-(3-methoxyphenoxy)phenyl)amino)-2-oxoethyl)-1-naphthamide], the GI50 in assay [1] is roughly 300 nM. Also, the “sensitivity of RPB1 Y418A mutant cells to growth inhibition” value in assay [2] is listed as “significantly less sensitive to growth inhibition by AOH1996 than the parent cells”. Also, the “increase of median survival” value in assay [3] is roughly 11.5%. Also, in the assay on γH2A.X (500 nM, SK-N-BE(2)c), the “γH2A.X levels, cancer vs non-malignant cells” value is listed as “caused accumulation of DNA damages as measured by γH2A.X levels in the SK-N-BE(2)c cancer cells, but not in non-malignant cells”. In the assay on γH2A.X (SK-N-AS, overnight), the “γH2A.X levels, wildtype RPB1 vs Y418A mutant cells” value is on record as “caused substantially more DNA damages as measured by γH2A.X levels in cells containing wildtype RPB1 allele than in cells homozygous of the Y418A mutant allele”.
